Experimental data published in the NIST ThermoML archive (doi:10.1016/j.fluid.2016.01.050).
Numbers after ± are expanded uncertainties.

Experiment: not given
Details: 298 K; 101.33 kPa; Liquid; Vibrating tube method

Compound	mass density [kg/m3]
CC(O)c1ccccc1 (stereo not drawn) [1-phenylethanol]	1006.48 ± 0.38
Clc1ccccc1 [chlorobenzene]	1101.08 ± 0.44
c1ccc(COCc2ccccc2)cc1 [dibenzyl ether]	1039.32 ± 0.4
CCCCC(=O)O [pentanoic acid]	935.04 ± 0.37

Experiment: refractive index (Na D-line) (dimensionless)
Details: 298 K; 101.33 kPa; Liquid; Standard Abbe refractometry

Compound	refractive index
CC(O)c1ccccc1 (stereo not drawn) [1-phenylethanol]	1.52467 ± 0.00042
Clc1ccccc1 [chlorobenzene]	1.52165 ± 0.00042
c1ccc(COCc2ccccc2)cc1 [dibenzyl ether]	1.56019 ± 0.00042
CCCCC(=O)O [pentanoic acid]	1.40718 ± 0.00042
